Test results reported in patent publication EP0604983B1, “Naphthalene derivatives” (Mitsubishi Chemical Corporation, priority 1992, dated 1994).
Marks after values point to notes of the source that are not given here.

These compounds were tested on KK-Ay male mice (assay: Blood sugar and blood triglyceride (TG) lowering test in KK-Ay mice, test compound mixed with powder food). Details: KK-Ay male mice; dose c.a. 30 mg/kg/day (footnote a) mixed with powder food for four days; plasma triglyceride 5th day; vs control group.
Assay type: in vivo
From the text: The effect of the compound of the present invention on reducing blood sugar and blood lipid levels based on the ability of improving insulin resistance has been determined by the following test.
KK-Ay male mice of five to six week age were obtained from Nihon CREA. The mice have been bred with a powder feed (MF powders for breeding rats and mice, Oriental Yeast Co.) from 7 days prior to the test. The mice of nine to eighteen week age having body weights of 35 g or more were used for the test.
The blood sugar values were measured by withdrawing blood (20 µl) from animal's tail vein using a heparin-treated capillary, centrifuging the blood to obtain plasma, and measuring the glucose level in the plasma by the glucose-oxidase method. The triglyceride (TG) levels in plasma were measured by the glycerol enzyme method. Five mice in a group having 200 mg/dl or more of the blood sugar level were used for one test.
The test compounds were mixed with powder food such that the average dosage of the former is 10 - 100 mg/kg/day, and the mixture was administered to the mice for four days. Blood was withdrawn from the animal's tail vein before administration, and five days after administration, and blood sugar and TG levels were measured using the methods mentioned above. The amount of the food ingested was measured every day during the test period, and the average of the amounts for four days was calculated.
The ability of reducing blood sugar level was determined as described below. Namely, the means of the blood sugar values at the time before administration of the test compound in a control group (a group to which the test compound was not administered) and an administration group (a group to which the test compound was administered) (such values are referred to as Mcon and Mad, respectively) and the means of the blood sugar values of the control group and the administration group on 5th day after administration (such values are referred to as Con and Ad, respectively) were determined. The blood sugar lowering effect found in the administration group was expressed by the following formula. Blood sugar lowering effect(%) = 1-(Ad/Mad)/(Con/Mcon)x100 [formula]
The blood TG lowering ratio (%) was measured by the same procedure as that described above. All the values were statistically evaluated under significance level P=0.05.

Structure (SMILES)	TG lowering ratio (%)
O=C1NC(=O)C(=Cc2ccc3cc(OCc4ccccc4)ccc3c2)S1 [Example 13, 5-(6-benzyloxy-2-naphthyl)-methylene-thiazolidine-2,4-dione]	21.0%
O=C1NC(=O)C(=Cc2ccc3cc(OCc4ccccc4F)ccc3c2)S1 [Example 15, 5-[6-(2-fluorobenzyloxy)-2-naphthyl]-methylene-thiazolidine-2,4-dione]	38.8%
O=C1NC(=O)C(=Cc2ccc3cc(OCc4cccc(F)c4)ccc3c2)S1 [compound 16]	22.3%
O=C1NC(=O)C(=Cc2ccc3cc(OCc4ccc(F)cc4)ccc3c2)S1 [compound 17]	24.4%
O=C1NC(=O)C(=Cc2ccc3cc(OCc4c(F)cccc4F)ccc3c2)S1 [compound 49]	43.4*** %
O=C1NC(=O)C(=Cc2ccc3cc(OCc4c(F)cccc4C(F)(F)F)ccc3c2)S1 [compound 50]	27.7** %

Same assay, conditions: KK-Ay male mice; dose c.a. 50 mg/kg/day mixed with powder food for four days; plasma triglyceride 5th day; vs control group

Structure (SMILES)	TG lowering ratio (%)
O=C1NC(=O)C(=Cc2ccc3cc(OCc4ccccc4Cl)ccc3c2)S1 [compound 18]	53.8* %
O=C1NC(=O)C(=Cc2ccc3cc(OCc4ccc(Cl)cc4)ccc3c2)S1 [compound 19]	21.7%
O=C1NC(=O)C(=Cc2ccc3cc(OCc4ccc(Br)cc4)ccc3c2)S1 [compound 21]	14.7%
Cc1ccccc1COc1ccc2cc(C=C3SC(=O)NC3=O)ccc2c1 [compound 22]	9.5%
N#Cc1ccc(COc2ccc3cc(C=C4SC(=O)NC4=O)ccc3c2)cc1 [compound 32]	39.6* %
O=C1NC(=O)C(=Cc2ccc3cc(OCc4ccccc4[N+](=O)[O-])ccc3c2)S1 [compound 33]	16.0%
O=C1NC(=O)C(=Cc2ccc3cc(OCc4ccc([N+](=O)[O-])cc4)ccc3c2)S1 [compound 35]	56.9%
COC(=O)c1ccc(COc2ccc3cc(C=C4SC(=O)NC4=O)ccc3c2)cc1 [compound 39]	16.0%
O=C1NC(=O)C(=Cc2ccc3cc(OCc4ccccc4C(F)(F)F)ccc3c2)S1 [compound 46]	51.0** %
O=C1NC(=O)C(=Cc2ccc3cc(OCc4ccc(C(F)(F)F)cc4)ccc3c2)S1 [compound 48]	25.6%

Same assay, conditions: KK-Ay male mice; dose c.a. 100 mg/kg/day (footnote b) mixed with powder food for four days; plasma triglyceride 5th day; vs control group

Structure (SMILES)	TG lowering ratio (%)
O=C1NC(=O)C(=Cc2ccc3cc(OCCc4ccccc4)ccc3c2)S1 [compound 14]	19.9%

Same assay, conditions: KK-Ay male mice; mixed with powder food for four days; Dose: c.a. 10 mg/kg/day; plasma triglyceride (glycerol enzyme method) on 5th day vs control group

Structure (SMILES)	TG lowering ratio (%)
O=C1NC(=O)C(Cc2ccc3cc(OCc4ccccc4)ccc3c2)S1 (stereo not drawn) [Example 2]	9.1* %
O=C1NC(=O)C(Cc2ccc3cc(OCc4ccccc4F)ccc3c2)S1 (stereo not drawn) [Example 4, 5-[6-(2-fluorobenzyloxy)-2-naphthyl]-methyl-thiazolidine-2,4-dione]	41.6* %
O=C1NC(=O)C(Cc2ccc3cc(OCc4ccc(F)cc4)ccc3c2)S1 (stereo not drawn) [Example 6]	37.7* %
O=C1NC(=O)C(Cc2ccc3cc(OCc4ccccc4Cl)ccc3c2)S1 (stereo not drawn) [Example 7]	28.3%
O=C1NC(=O)C(Cc2ccc3cc(OCc4ccc(Cl)cc4)ccc3c2)S1 (stereo not drawn) [Example 8]	9.4%
O=C1NC(=O)C(Cc2ccc3cc(OCc4ccccc4C(F)(F)F)ccc3c2)S1 (stereo not drawn) [Example 10]	37.2%
CCc1ccc(CCOc2ccc(CC3SC(=O)NC3=O)cc2)nc1 (stereo not drawn) [Pioglitazone, pioglitazone, reference compound]	-4.0%

Same assay, conditions: KK-Ay male mice; mixed with powder food for four days; footnote a): Dose c.a. 100 mg/kg/day; plasma triglyceride (glycerol enzyme method) on 5th day vs control group

Structure (SMILES)	TG lowering ratio (%)
Cc1c(C)c2c(c(C)c1O)CCC(C)(COc1ccc(CC3SC(=O)NC3=O)cc1)O2 (stereo not drawn) [CS-045, reference compound]	-18.5%
O=C1NC(=O)C(Cc2ccc3cc(OCc4ccccn4)ccc3c2)S1 (stereo not drawn) [Example 1, 5-[6-(2-pyridylmethyloxy)-2-naphthyl]-methyl-thiazolidine-2,4-dione]	56.4%
O=C1NC(=O)C(Cc2ccc3cc(Oc4ccccc4)ccc3c2)S1 (stereo not drawn) [Example 3]	31.3%
